{"source": "patent US20220354957A1", "about": "“PEPTIDES TARGETING MACROPHAGES, AND CONJUGATES, COMPOSITIONS, AND USES THEREOF” (Twinpig Biolab, Inc., priority 2021, published 2022)", "key": {"M2-like TAMs": {"system": "M2-like TAMs", "assay": "FACS of tumor macrophages and CD8+ T cells in mouse model of melanoma", "type": "in vivo", "details": "vs PBS group", "from_the_text": "BALB/c and C57BL/6 (B6) wild-type mice were purchased from DBL. For the subcutaneous tumor model of melanoma and prostate cancer, CT26 (3×10^5 cells/mouse), B16F10 (1×10^6 cells/mouse) and TRAMP-C2 cells (1×10^6 cells/mouse) were mixed with Matrigel matrix (Corning) and inoculated subcutaneously into the right flank of the mice, and 4T1 (1×10^5 cells/mouse) cells mixed with Matrigel matrix and inoculated into a 4th mammary fat pad of the mice. TAMpepK, and MpepK peptides (200 nmol/kg) were injected intraperitoneally every 3 days, beginning at day 7 after tumor inoculation, and tumor volume was measured by electronic caliper. All tumor tissues were harvested after the end of the study and tumor weight was measured by an electronic balance.\nTHP-1 cells were differentiated into macrophages by a 24 h incubation with 100 nM PMA and polarized in M2 macrophages by incubation with 20 ng/ml of IL-4 and 20 ng/ml of IL-13 for 72 h. Polarized cells were treated with 50 nM TAMpep and fragments of TAMpep or Mpep and alanine library of Mpep conjugated with FITC for 1 h. To test change of macrophage population in melanoma tissue, the single cells were isolated from tumor tissue through a 40 μm nylon mesh strainer after dissociation by DNase I (1 U/mL) and collagenase D (1 mg/ml). Cells were detected on BD FACSCalibur and BD FACSCantoII instruments and analyzed by FlowJo software."}, "[1]": {"system": "lung fibrosis induced by bleomycin", "assay": "Mouse model of lung fibrosis (bleomycin)", "type": "in vivo", "procedure": "For lung fibrosis mouse model, C57BL/6 (B6) wild-type mice were lightly anesthetized with 2.5% isoflurane and administered bleomycin (BLM, 2 mg/kg) via oropharyngeal aspiration (OA) using a micropipette. After 14 days, the mice were intraperitoneally injected with MpepK (200 nmol/kg) every other day. The animal studies were approved by the Institutional Animal Care and Use Committee of Kyung Hee University (KHUASP(SE)-20-530 for melanoma and 20-382 for prostate cancer). All animals were maintained in a specific pathogen-free environment on a 12-h light/dark cycle with free access to food and water. Nesting sheets were used for enrichment. After the experiments were terminated, all mice were euthanized using isoflurane and cervical dislocation.\n(§1) Total RNA was extracted using Easy-Blue reagent. Concentrations of RNA were determined and quantified by measuring absorbance at 260 and 280 nm with a spectrophotometer. […] PCR conditions were forty-five cycles at 95° C. for 5 min, followed by 95° C. for 10 sec, 60° C. for 10 sec and 72° C. for 10 sec. mRNA expression were quantified in triplicate. Data were measured with CFX Software (Bio-Rad). […]\nThe lung tissues of lung fibrosis mouse model were fixed in 10% neutral buffered formalin and embedded in paraffin. […] The sections were examined and evaluated randomly using standard light microscopy (Olympus)."}, "[2]": {"system": "TGF-β1-induced A549 cells cocultured with IL-4 and IL-13 induced THP-1 macrophages", "assay": "In vitro lung fibrosis model, coculture", "type": "cell-based, human", "details": "1.5 μM, cocultured with M2 polarization of THP-1", "procedure": "THP-1 cells were purchased from the American Type Culture Collection (ATCC) and cultured according to their specific indications, using an RPMI 1640 medium supplemented with non-heat-treated 10% fetal bovine serum (FBS; WelGENE), 2 mM L-glutamine, 0.05 mM β-mercaptoethanol, 10 mM HEPES, 4500 mg/L glucose, 100 U/ml penicillin and 100 μg/ml streptomycin (Gibco). Human alveolar cell, A549 cells, obtained from the American Type Culture Collection (ATCC), were cultured in RPMI 1640 medium containing 2.05 mM L-glutamine, 2 g/liter sodium bicarbonate and 2 g/liter glucose (WelGENE) together with 10% FBS (WelGENE), 100 U/ml penicillin and 100 μg/m1 streptomycin (Gibco). Cells were cultured at 37° C. in a 5% CO2 humidified incubator to reach 80% of confluence.\nTHP-1 cells are differentiated into macrophages by 24 h incubation with 100 nM phorbol 12-myristate 13-acetate (PMA, Sigma) followed by 24 h incubation in RPMI medium (Invtrogen). […]\nas §1"}}, "data": [{"smiles": "CC[C@H](C)[C@H](NC(=O)[C@H](CC(C)C)NC(=O)[C@H](C)NC(=O)[C@@H]1CCCN1C(=O)[C@H](CC(C)C)NC(=O)CNC(=O)[C@@H](NC(=O)[C@@H](NC(=O)[C@H](CC(C)C)NC(=O)[C@@H](NC(C)=O)C(C)C)[C@@H](C)O)[C@@H](C)O)C(=O)N[C@@H](CO)C(=O)N[C@@H](Cc1c[nH]c2ccccc12)C(=O)N[C@H](C(=O)N[C@@H](CCCCN)C(=O)N[C@@H](CCCNC(=N)N)C(=O)N[C@@H](CCCCN)C(=O)N[C@@H](CCCNC(=N)N)C(=O)N[C@@H](CCC(N)=O)C(=O)N[C@@H](CCC(N)=O)C(=O)NCC(=O)NCC(=O)NCC(=O)NCC(=O)N[C@@H](CO)C(=O)N[C@H](CCCCN)C(=O)N[C@H](CC(C)C)C(=O)N[C@H](C)C(=O)N[C@H](CCCCN)C(=O)N[C@H](CC(C)C)C(=O)N[C@H](C)C(=O)N[C@H](CCCCN)C(=O)N[C@H](CCCCN)C(=O)N[C@H](CC(C)C)C(=O)N[C@H](C)C(=O)N[C@H](CCCCN)C(=O)N[C@H](CC(C)C)C(=O)N[C@H](C)C(=O)N[C@H](CCCCN)C(=O)O)[C@@H](C)CC", "note": "[MpepK]", "values": [{"measurement": "exhaustion markers, such as PD-1 and LAGS, in CD8+ T cells", "setting": "M2-like TAMs; melanoma model", "result": "significantly reduced"}, {"measurement": "M1-like TAMs (F4/80+ and CD86+ cells)", "setting": "M2-like TAMs; melanoma tumor tissue", "result": "no change"}, {"measurement": "M1/M2 ratio", "setting": "M2-like TAMs; melanoma tumor tissue", "result": "significantly increased"}, {"measurement": "M2-like TAMs (F4.80+ and CD206+ cells)", "setting": "M2-like TAMs; melanoma tumor tissue", "result": "reduced"}, {"measurement": "lung fibrosis induced by bleomycin", "setting": "[1]; 200 nmol/kg i.p. every other day, H&E", "result": "decreased"}, {"measurement": "gene expression related to fibrosis such as fos12, collagen type 1 and fibronectin 1", "setting": "[1]; compared to PBS", "result": "significantly reduced"}, {"measurement": "inhibitory effect on EMT and FMT of epithelial cells", "setting": "[2]", "result": "no significant inhibitory effect"}]}]}
